Converted amounts (≈) assume the structure as drawn.
How the values were obtained:
[1] = tested on: P. falciparum K1 strain (Thailand resistant to chloroquine); experiment: semiautomated microdilution assay, [3H]-hypoxanthine incorporation, K1 strain; format: cell-based, Plasmodium falciparum; details: K1 strain, 72 h incubation
Outline: (§1)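 Asynchronous stock cultures → intraerythrocytic forms; semiautomated microdilution; IC50 by logit regression.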

[2] = tested on: P. falciparum NF54 strain (sensitive to standard antimalarials); experiment: semiautomated microdilution assay, [3H]-hypoxanthine incorporation, NF54 strain; format: cell-based, Plasmodium falciparum; details: NF54 strain, 72 h incubation
Outline: as §1

[3] = tested on: ANKA strain of P. berghei; experiment: single dose STI in vivo screen in infected mice; set-up: species or system Plasmodium berghei; details: for Activity (%) po / Activity (%) sc / Activity (%) SSVpo: percent reduction in parasitemia day 3 post-infection, mice; for Activity (%) po / Survival (days) po: single 10 mg/kg po in 3% ethanol and 7% Tween 80; for Activity (%) sc / Survival (days) sc: single 10 mg/kg sc in 3% ethanol and 7% Tween 80; for Activity (%) SSVpo: single po dose in standard suspending vehicle (SSV); for Survival (days) po / Survival (days) sc / Survival (days) SSVpo: untreated control 5.6 ± 0.3; for Survival (days) SSVpo: single po dose in SSV
Outline: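 Groups of 3-5 Moro SPF or NMRI mice infected with the ANKA strain of P. berghei received a single dose of trioxolane on day one post-infection. The compound was given in 3% ethanol and 7% Tween 80 or in SSV (0.5% w/v CMC, 0.5% v/v benzyl alcohol, 0.4% v/v Tween 80, 0.9% w/v sodium chloride in water). Antimalarial activity was scored as percent reduction in parasitemia on day three and as survival time versus untreated controls. Survival to day 30 counted as cure.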

SMILES	IC50 (ng/ml) K1 [1]	IC50 (ng/ml) NF54 [2]	Activity (%) po [3]	Activity (%) sc [3]	Activity (%) SSVpo [3]	Survival (days) po [3]	Survival (days) sc [3]	Survival (days) SSVpo [3]
Fc1ccc(NC2CCC3(CC2)OOC2(O3)C3CC4CC(C3)CC2C4)cc1 (stereo not drawn) [OZ201]	2.0 ng/mL (≈ 5.36 nM)	3.1 ng/mL (≈ 8.3 nM)	100/100/100%	100/100/100%	100/100/100%	13 days	25 days	10.3 days
CC(=O)OC(C)(C)C(=O)N[C@H]1CC[C@]2(CC1)OOC1(O2)C2CC3CC(C2)CC1C3 (stereo partly drawn) [OZ202]	6.0 ng/mL (≈ 14.7 nM)	7.9 ng/mL (≈ 19.4 nM)	79%	74%	51%	7.0 days	7.3 days	7.3 days
O=C(N1CCCC1)N1CCC2(CC1)OOC1(O2)C2CC3CC(C2)CC1C3 (stereo not drawn) [OZ203]	3.9 ng/mL (≈ 10.8 nM)	6.7 ng/mL (≈ 18.5 nM)	87%	99.72%	99.42%	7.3 days	9.7 days	8.7 days
COC(=O)c1ccc(C[C@H]2CC[C@]3(CC2)OOC2(O3)C3CC4CC(C3)CC2C4)cc1 (stereo partly drawn) [OZ204]	>10/>10 ng/ml	>10/>10 ng/ml	0/0/0%	0/0/0%	0/0/0%	6.0 days	6.0 days	6.3 days
O=C1CNC(=O)N1C[C@H]1CC[C@]2(CC1)OOC1(O2)C2CC3CC(C2)CC1C3 (stereo partly drawn) [OZ206]	1.0 ng/mL (≈ 2.66 nM)	2.7 ng/mL (≈ 7.17 nM)	93%	91%	92%	8.0 days	9.7 days	8.7 days
CCOC(=O)c1cccc([C@H]2CC[C@]3(CC2)OOC2(O3)C3CC4CC(C3)CC2C4)c1 (stereo partly drawn) [OZ208]	6.0 ng/mL (≈ 14.5 nM)	6.5 ng/mL (≈ 15.8 nM)	0%	10%	29%	6.3 days	5.7 days	6.7 days
O=S(=O)(C[C@H]1CC[C@]2(CC1)OOC1(O2)C2CC3CC(C2)CC1C3)c1ccccc1 (stereo partly drawn) [OZ210]	1.4 ng/mL (≈ 3.34 nM)	1.6 ng/mL (≈ 3.82 nM)	99.23%	99.94%	77%	9.3 days	10.3 days	8.0 days
c1cnn(C[C@H]2CC[C@]3(CC2)OOC2(O3)C3CC4CC(C3)CC2C4)c1 (stereo partly drawn) [OZ211]	1.0 ng/mL (≈ 2.9 nM)	1.2 ng/mL (≈ 3.48 nM)	82%	99.90%	78%	8.0 days	8.7 days	7.3 days
O=C1c2ccccc2S(=O)(=O)N1C[C@H]1CC[C@]2(CC1)OOC1(O2)C2CC3CC(C2)CC1C3 (stereo partly drawn) [OZ212]	2.7 ng/mL (≈ 5.88 nM)	2.9 ng/mL (≈ 6.31 nM)	66%	59%	25%	6.7 days	8.0 days	6.7 days
CONC(=O)C[C@H]1CC[C@]2(CC1)OOC1(O2)C2CC3CC(C2)CC1C3 (stereo partly drawn) [OZ213]	2.3 ng/mL (≈ 6.54 nM)	2.8 ng/mL (≈ 7.97 nM)	83%	85%	74%	8.0/8.0/8.0 days	8.0/8.0/8.0 days	8.0/8.0/8.0 days
O=C(O)c1ccc(C[C@H]2CC[C@]3(CC2)OOC2(O3)C3CC4CC(C3)CC2C4)cc1 (stereo partly drawn) [OZ214]	>10/>10 ng/ml	>10/>10 ng/ml	44%	65%	54%	6.3 days	7.7 days	7.3 days
O=C1c2ccccc2C(=O)N1CC[C@H]1CC[C@]2(CC1)OOC1(O2)C2CC3CC(C2)CC1C3 (stereo partly drawn) [OZ215]	6.4 ng/mL (≈ 14.6 nM)	7.3 ng/mL (≈ 16.7 nM)	96%	39%	25%	9.7 days	7.0 days	6.3 days

From patent US6906205B2, “Spiro and dispiro 1,2,4-trioxolane antimalarials” (Medicines for Malaria Venture MMV, priority 2002, dated 2005)
